Source: patent US20260191863A1, “PYRROLOPYRIMIDINE COMPOSITIONS FOR TREATMENT OF ITK MEDIATED CONDITIONS” (ACLARIS THERAPEUTICS, INC., priority 2022, published 2026)
“And” between values parts separate entries of the source, which are not always exact repeats. Equal values may be shown once. Read-outs that look alike come from different tables or passages of the source.

Legend:
JAK3 (pSTAT5, lymph) = assay: Pre-clinical human whole blood IL-2/pSTAT5 (20 min), lymphocytes; type: cell-based; settings: for EC50: Homo sapiens, Lymphocyte
[1] = tested on: αCD3 & αCD28 stimulated IL2mRNA; assay: MAD ex vivo PD: αCD3 & αCD28 stimulated IL2 mRNA; type: in vivo; settings: Homo sapiens
From the text: (§1) Exploratory Endpoints—Mean change from baseline in cellular, extracellular (secreted), and/or message markers of inflammation.
(§2) EC50 and IC50 data for αCD3 & αCD28 stimulated IL2mRNA, IL15 stimulated IFNγ protein, and αCD3 & IL15 stimulated IFNγ protein is shown in table 9.

experimental colitis = assay: Mouse colitis model vs ritlecitinib and tofacitinib, histological damage; type: in vivo; settings: proximal/distal colon and ileum
Experimental: […] experimental colitis data-Histological damage was evaluated for the proximal/distal colon and ileum. Representative data shown here is from the distal colon-across all three regions of GI tissues analyzed.

JAK3 = molecular target: T1, JAK3 (Homo sapiens, UniProt P52333); assay: Cell IC50 JAK3 hPBMC IL-2/pSTAT5; type: cell-based
T1 construct: IL-2/pSTAT5; endogenous in cells; host or cells: human PBMC
T1 sequence (P52333 1-1124): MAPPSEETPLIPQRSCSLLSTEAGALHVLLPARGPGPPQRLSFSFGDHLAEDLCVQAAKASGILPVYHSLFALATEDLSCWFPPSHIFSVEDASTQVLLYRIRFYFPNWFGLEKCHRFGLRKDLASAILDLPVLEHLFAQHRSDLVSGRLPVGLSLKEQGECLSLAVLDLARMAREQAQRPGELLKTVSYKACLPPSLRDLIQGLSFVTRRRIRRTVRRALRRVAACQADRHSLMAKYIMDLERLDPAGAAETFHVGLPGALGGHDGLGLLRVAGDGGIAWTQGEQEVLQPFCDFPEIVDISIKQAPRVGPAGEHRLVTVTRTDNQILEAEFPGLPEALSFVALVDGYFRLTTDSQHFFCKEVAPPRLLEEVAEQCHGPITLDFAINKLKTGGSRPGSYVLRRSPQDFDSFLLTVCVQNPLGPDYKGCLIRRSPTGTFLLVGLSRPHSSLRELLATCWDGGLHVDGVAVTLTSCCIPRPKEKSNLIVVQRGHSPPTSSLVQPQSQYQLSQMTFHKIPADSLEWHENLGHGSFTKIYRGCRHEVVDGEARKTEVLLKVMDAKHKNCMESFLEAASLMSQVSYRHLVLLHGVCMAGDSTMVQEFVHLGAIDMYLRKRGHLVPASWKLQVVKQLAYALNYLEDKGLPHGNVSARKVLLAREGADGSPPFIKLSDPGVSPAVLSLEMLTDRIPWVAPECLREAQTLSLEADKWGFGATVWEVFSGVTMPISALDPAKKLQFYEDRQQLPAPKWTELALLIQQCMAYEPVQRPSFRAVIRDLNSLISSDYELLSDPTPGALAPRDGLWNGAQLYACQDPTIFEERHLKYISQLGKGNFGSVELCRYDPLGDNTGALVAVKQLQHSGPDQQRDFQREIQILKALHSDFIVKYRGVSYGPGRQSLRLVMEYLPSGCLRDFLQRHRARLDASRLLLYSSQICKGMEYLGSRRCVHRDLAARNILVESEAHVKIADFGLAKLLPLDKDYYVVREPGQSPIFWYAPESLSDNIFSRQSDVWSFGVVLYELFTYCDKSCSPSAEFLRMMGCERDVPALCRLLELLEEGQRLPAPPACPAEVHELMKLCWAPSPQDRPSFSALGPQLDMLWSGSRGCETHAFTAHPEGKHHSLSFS

[2] = tested on: αCD3 & IL15 stimulated IFNγ protein; assay: MAD ex vivo PD: αCD3 & IL15 stimulated IFNγ protein; type: in vivo, human
From the text: as §1, §2

ITK (IFNγ mRNA) = assay: Pre-clinical αCD3/αCD28 stimulated IFNγ mRNA; type: cell-based; settings: Homo sapiens
ITK (IL2 mRNA) = assay: SAD ex vivo PD: αCD3/αCD28 stimulated IL2 mRNA production; type: in vivo; settings: Homo sapiens
From the text: (§3) Secondary Endpoints—Compound I plasma concentrations. Mean change from baseline in ex vivo stimulated pSTAT5 and pSTAT1 (signal transducer and activator of transcription); and in ex vivo stimulated IFNγ mRNA (interferon gamma messenger ribonucleic acid).
(§4) Summary of SAD data: FIGS. 4-8 and 9-13 show the SAD dose response, SAD exposure response, and SAD calculated response at Cmax by dose respectively for ITK (IL2 mRNA), ITK (IFNγ mRNA), JAK3 (pSTAT5, lymph), JAK3 (pSTAT5, CD3′ T), and ITK & JAK (IFNγ protein). Clinical and pre-clinical IC50 data for ITK (IL2 mRNA), ITK (IFNγ mRNA), JAK3 (pSTAT5, lymph), JAK3 (pSTAT5, CD3^+ T), and ITK & JAK (IFNγ protein) from the SAD study is shown in table 4.

[3] = tested on: IL15 stimulated IFNγ protein; assay: MAD ex vivo PD: IL15 stimulated IFNγ protein; type: in vivo; settings: Homo sapiens
From the text: as §1, §2

JAK3 (pSTAT5, CD3+ T) = assay: SAD ex vivo PD: IL2 stimulated pSTAT5 in CD3+ T cells; settings: Homo sapiens, T-cell; SAD study; read-out: Clinical EC50
From the text: as §3, §4

[4] = Phase 1 SAD study: safety and tolerability; type: in vivo, human
Experimental: Primary Endpoints—Number and percentage of adverse events (AEs) and serious adverse events (SAEs); mean change from baseline in laboratory values, vital signs, and electrocardiograms (ECGs) abnormalities.
Type of Study—This was an FIH, randomized, observer-blind, placebo-controlled study designed to evaluate the safety, tolerability, PK, and PD of Compound I in healthy subjects. The study consisted of: single ascending dose (SAD) cohorts (1-80 mg/day) plus formulation bridging and food effect (FE) cohorts.
Approximately 64 male and female subjects were enrolled into 8 planned cohorts in the SAD study. In each cohort, a total of 8 subjects were randomized to receive a single oral capsule dose of Compound I (n=6) or placebo (n=2) in the morning with approximately 240 mL of water after an overnight fast of at least 8 hours.

For `C=CC(=O)N1C[C@H](Nc2ncnc3[nH]cc([C@H]4CC4(F)F)c23)CC[C@@H]1C` [Compound I, 1-((2S,5R)-5-((5-((R)-2,2-difluorocyclopropyl)-7H-pyrrolo[2,3-d]pyrimidin-4-yl)amino)-2-methylpiperidin-1-yl)prop-2-en-1-one], the “Potency relative to Ritlecitinib, IL-2/pSTAT5 (20 min)” value (JAK3 (pSTAT5, lymph)) was “(1.2 fold*)”, the EC50 (JAK3 (pSTAT5, lymph); 20 min, read-out: Human Whole Blood EC50, IL-2/pSTAT5 (20 min)) was 136 nM and the EC50 (JAK3 (pSTAT5, lymph); read-out: Pre-clinical EC50) was 136 ± 51.2 nM. For the same molecule, the EC50 [1] was 0.0019 µg/mL and 5.3 nM, the “Protection from histological damage vs comparator drugs” value (experimental colitis) was “more protective than both comparator drugs” and the “Potency relative to Ritlecitinib, JAK3 hPBMC IL-2/pSTAT5” value (JAK3) was 2.3 fold. For the same molecule, the IC50 (JAK3; hPBMC, IL-2/pSTAT5) was 23 nM, the JAK specificity (JAK3; vs other JAK kinases like JAK2) was “completely specific for JAK3” and the EC50 ([2]; Homo sapiens, read-out: MAD EC50) was 0.0041 µg/mL and 11.4 nM. For the same molecule, the EC50 ([2]; human whole blood dual stimulation, read-out: Human Compound I Cp to reach HWB dual stim EC50 (MAD PD data)) was at least 3.47 ng/mL, the EC50 (ITK (IFNγ mRNA)) was 17.3 ± 3 nM and the EC50 (ITK (IL2 mRNA); SAD study, read-out: Clinical EC50) was 15.2 nM. The EC50 (ITK (IL2 mRNA); read-out: SAD EC50) was 0.0055 µg/mL and 15.2 nM, the EC50 [3] was 0.0022 µg/mL and 6.1 nM and the EC50 (JAK3 (pSTAT5, CD3+ T)) was 110 nM. The “Deaths, serious AEs, discontinuations due to AEs” value ([4]; SAD) was “no deaths, serious AEs, or discontinuations due to AEs”, the “Safety and tolerability conclusion” value ([4]; SAD) was “safe and well tolerated” and the “Severity of TEAEs” value ([4]; SAD) was “mild and transient”. For the same molecule, the “Transient increase in CK at follow-up” value ([4]; SAD highest dose group (80 mg)) was 2 subjects, the “Transient increase in transaminases at follow-up” value ([4]; SAD highest dose group (80 mg)) was 1 subject and the “Number of TEAEs in Compound I treated subjects” value ([4]; SAD, 13 subjects) was 14. For the same molecule, the “Changes in WBC count” value ([4]; SAD, during treatment and at follow-up) was “No clinically meaningful changes”.
